Results on 1 compound are retold here after publication PMC3974779, “Pterostilbene-Isothiocyanate Conjugate Suppresses Growth of Prostate Cancer Cells Irrespective of Androgen Receptor Status” (PLoS ONE, 2014).

In assay [1] the target is T1, androgen receptor in LNCaP cells (Homo sapiens, UniProt P10275, T878A).
T1 construct: LNCaP cells, that express endogenous AR; endogenous in cells; host or cells: LNCaP
T1 sequence (P10275 1-920 T878A): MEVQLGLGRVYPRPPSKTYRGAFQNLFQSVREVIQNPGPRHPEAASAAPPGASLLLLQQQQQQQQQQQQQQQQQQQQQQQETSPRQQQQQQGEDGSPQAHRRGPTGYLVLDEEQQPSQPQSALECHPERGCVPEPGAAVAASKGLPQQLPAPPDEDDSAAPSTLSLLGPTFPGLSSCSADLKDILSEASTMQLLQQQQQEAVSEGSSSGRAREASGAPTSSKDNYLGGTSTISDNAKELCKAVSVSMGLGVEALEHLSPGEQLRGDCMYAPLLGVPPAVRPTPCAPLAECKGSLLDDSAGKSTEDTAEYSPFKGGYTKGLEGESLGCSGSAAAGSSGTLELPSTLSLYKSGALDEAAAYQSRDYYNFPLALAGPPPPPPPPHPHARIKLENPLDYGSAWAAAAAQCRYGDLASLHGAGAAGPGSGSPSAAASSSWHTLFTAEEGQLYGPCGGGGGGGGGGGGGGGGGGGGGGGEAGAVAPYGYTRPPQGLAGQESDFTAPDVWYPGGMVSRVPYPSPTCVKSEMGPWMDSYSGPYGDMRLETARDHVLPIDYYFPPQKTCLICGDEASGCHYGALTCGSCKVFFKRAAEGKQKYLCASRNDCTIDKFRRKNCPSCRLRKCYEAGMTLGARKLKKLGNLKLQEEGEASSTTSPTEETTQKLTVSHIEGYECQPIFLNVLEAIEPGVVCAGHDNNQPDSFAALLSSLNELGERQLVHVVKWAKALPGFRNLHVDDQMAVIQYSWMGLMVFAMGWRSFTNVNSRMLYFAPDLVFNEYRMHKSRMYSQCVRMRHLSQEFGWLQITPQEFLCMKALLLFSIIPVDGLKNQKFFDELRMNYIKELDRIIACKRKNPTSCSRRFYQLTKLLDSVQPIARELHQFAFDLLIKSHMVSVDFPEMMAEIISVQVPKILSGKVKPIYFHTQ
The assay can be described thus: AR transactivation luciferase assay with/without exogenous SRC-1 and GRIP-1. It is filed as cell-based. As to conditions: 10 μM with DHT. Here is the method: The LNCaP cells were grown and transiently transfected with pMMTV-neomycin-luciferase plasmid (300 ng/10^5 cells) in RPMI media supplemented with 10% FBS using polyfect transfection reagent (Qiagen, CA, USA) according to manufacturer’s instructions. […] In case of PC-3 cells, they were similarly transfected, but in addition to pMMTV-neomycin-luciferase construct, they were also transfected with pSG5-hAR-puro plasmid (full length hAR in pSG5 expression vector) in the ratio of 5∶1 as indicated above. For experiments involving co-regulators, 50 ng of co-activator plasmids (25 ng each of GRIP-1 and SRC-1) along with pMMTV-neo-luc (250 ng) were transfected to LNCaP cells. To evaluate the transfection efficiency, 500 ng/105 cells of the SV40 promoter-Renilla luciferase (pRL-SV40) vector (Promega Madison, USA) were co-transfected as internal control. […] The values of luciferase for each lysates were normalized to the Renilla luciferase activity.

The next assay deals with p-ERK in PC-3 cells. The assay is described as follows: Immunoblot of ERK phosphorylation. It is filed as cell-based, human. Particulars: 24 h. Here is the method: (§1) The whole-cell lysates were prepared as described previously in immunoprecipitation (IP) buffer containing 50 mM Tris-HCl (pH 8.0), 150 mM NaCl, 5 mM EDTA, and 1% Triton X-100. Protein aliquots of 500 μg were then incubated overnight at 4°C using 2 μg of antibody directed against AR. The Protein A-Cl Agarose beads were then added and further incubated for 6 h at 4°C. The immunoprecipitates were washed four times with the IP buffer and the immunocomplexes were recovered by boiling in SDS sample buffer. Finally the western blot was carried out using anti-AR, anti-SRC-1 and anti-GRIP-1 antibodies (Santa Cruz, CA, USA). For western blot analysis, the cell lysates were prepared after harvesting them in lysis buffer. About 40 μg of total protein was electrophoresed by 12% SDS-PAGE, and the western blotting was carried out using standard protocol. In brief, the analyzed proteins were transferred to nylon membranes. The blots were then blocked with TBST buffer (20 mM Tris-Cl, pH 7.5, 150 mM sodium chloride, 0.05% Tween-20) containing 5% skim milk powder. They were then washed with TBST buffer and incubated overnight at 4°C with the same buffer containing appropriate amounts of primary antibodies: caspase-3, Bax, Bcl-2, Akt, p-Akt, ERK, p-ERK, AR, SRC-1, GRIP-1 (1∶500) and β-actin (1∶1000). The blots were then washed and incubated with anti-rabbit secondary antibody (1∶20,000) conjugated with horseradish peroxidase (HRP). Color development was performed in the dark by using an ECL kit (Amersham, GE Healthcare, Buckinghamshire, UK). The developed blots were subjected to densitometric analysis by ImageJ 1.43 software (NIH, USA) using β-actin as internal control.
(§2) The siRNAs against human Akt and ERK and control siRNA were purchased commercially from Santa Cruz Biotechnology (USA). The LNCaP and PC-3 PCa cells were transfected with siRNAs (at a final concentration of 100 nM) using polyfect transfection reagent (Qiagen, CA, USA) according to manufacturer’s instructions. After 24 h of transfection, the cells were washed properly and replaced with fresh medium. The cells were then treated with 20 μM conjugate for 24 h, and finally protein lysates were prepared on completion of treatment. The levels of p-Akt, p-ERK and cleaved caspase-3 expressions were detected by Western blot analysis.
Background: In western blotting, separated proteins are transferred to a membrane and probed.

The test system of assay [2] is cleaved caspase-3 in PC-3 cells. The assay is described as follows: Akt/ERK siRNA silencing, cleaved caspase-3 immunoblot. Format: cell-based, human. Here is the method:
as §2
Figure 5 Differential role of PI3K/Akt and MAPK/ERK pathways in conjugate induced apoptosis of prostate cancer cells. Effects of siRNA mediated silencing of Akt and ERK on conjugate-induced apoptosis of (A) PC-3 and (B) LNCaP cells. LNCaP and PC-3 PCa cells were transfected with siRNAs (at a final concentration of 100 nM) using polyfect transfection reagent. After 24 h of transfection the cells were treated with 20 μM conjugate and allowed to grow for another 24 h. The cell lysates were prepared and the level of p-Akt, p-ERK and cleaved caspase-3 proteins were detected by immunoblot analysis. The histogram on the right panel of each figure represents densitometric analyses of the image data and expressed as percent of control where the results are mean ± SEM of three independent experiments. *and # represents statistically significant difference with respect to control and 20 μM conjugate treated groups respectively at p<0.05.

Assay [3] relates to caspase-3 expression in PC-3 cells. The assay is described as follows: Immunoblot analysis of apoptotic markers. It is filed as cell-based, human. Particulars: PC-3, highest dose (40 μM), immunoblot densitometry. Here is the method:
as §1

The subject of assay [4] is caspase-3 expression in LNCaP cells. The assay can be described thus: Immunoblot analysis of apoptotic markers. It is filed as cell-based, human. As to conditions: highest dose (40 μM), immunoblot densitometry. Here is the method: as §1

Each structure is given as a SMILES string.

On to `COc1cc(/C=C/c2ccc(O)c(/C=N/NC(N)=S)c2)cc(OC)c1` [conjugate, Pterostilbene-isothiocyanate conjugate], for which the “AR transactivation (DHT alone = 100%)” value in assay [1] (with exogenous SRC-1 and GRIP-1) stood at 102%; in assay [1] (without exogenous co-activators) it was 64%. Moreover, the “reduction in level of p-ERK” value is listed as 1.3 folds with p-ERK in PC-3 cells (PC-3, 20 μM) and 1.7 folds in the assay with p-ERK in PC-3 cells (PC-3, 40 μM). Moreover, the “increase in cleaved caspase-3 protein expression vs control” value was determined as 3.7 folds in assay [2] (PC-3, 20 μM conjugate alone, 24 h) and 4.8 folds in assay [2] (PC-3, 20 μM conjugate in presence of Akt siRNA). Moreover, the “increase in expression of caspase-3 vs control” value in assay [2] (PC-3, 20 μM conjugate in presence of ERK siRNA) stood at 3.9 folds. In addition, the entries for the “enhancement of caspase-3 expression” value in assay [3] and in assay [4] were approximately 6 folds and “about 8.5 folds”, respectively.
